Measurements: US7001921B1, “Cell adhesion inhibitors” (Biogen Idec MA Inc., priority 1995, dated 2006)

biological target: T1, VLA4 (Homo sapiens, UniProt P05556+P13612); test: Inhibition of VLA4-dependent adhesion to BSA-CS1 (labelled Ramos cells); format: cell-based; details: binding of BCECF-AM labelled Ramos cells to CS1 peptide-coated wells, 2 mM MnCl2, 30 minutes at room temperature; IC50 range
T1 construct: endogenous in cells; host or cells: Ramos cells
Excerpt: For example, the cell adhesion inhibitory activity of these compounds may be measured by determining the concentration of inhibitor required to block the binding of VLA-4-expressing cells to fibronectin- or CS1-coated plates. In this assay microtiter wells are coated with either fibronectin (containing the CS-1 sequence) or CS-1. If CS-1 is used, it must be conjugated to a carrier protein, such as bovine serum albumin, in order to bind to the wells. Once the wells are coated, varying concentrations of the test compound are then added together with appropriately labelled, VLA-4-expressing cells. Alternatively, the test compound may be added first and allowed to incubate with the coated wells prior to the addition of the cells. The cells are allowed to incubate in the wells for at least 30 minutes. Following incubation, the wells are emptied and washed. Inhibition of binding is measured by quantitating the fluorescence or radioactivity bound to the plate for each of the various concentrations of test compound, as well as for controls containing no test compound.
VLA-4-expressing cells that may be utilized in this assay include Ramos cells, Jurkat cells, A375 melanoma cells, as well as human peripheral blood lymophocytes (PBLs). The cells used in this assay may be fluorescently or radioactively labelled.
This assay was used to assess the potency of VLA4-directed inhibitory compounds of this invention.
We dissolved BSA-SMCC (Pierce Chemical, Rockford, Ill.; Catalog # 77115) in H2O at a concentration of 10 mg/mL. [SEQ ID NO:4]: […](“Cys-Tyr-CS1 peptide”), which we synthesized by conventional solid phase chemistry and purified by HPLC, was dissolved in 10 mM HEPES pH 5, 50 mM NaCl and 0.1 mM EDTA also at a concentration of 10 mg/mL. We then mixed 500 μL of BSA-SMCC, 250 μL of Cys-Tyr-CS1 peptide and 75 μL of […] and allowed the conjugation reaction to proceed for 30 minutes. We stopped the reaction by adding 1 μL of beta-mercaptoethanol. Samples were analyzed for cross-linking by SDS-PAGE. This reaction produced multiple molecules of the Cys-Tyr-CS1 peptide conjugate to each BSA molecule.
We coated the wells of a Linbro titertek polystyrene 96-well flat bottom plate (Flow Laboratories, Maclean, Va.; catalog #76-231-05) with 100 μL of the above-described BSA-CS1 solution diluted to 1 μg/mL in 0.05 M NaHCO3 (15 mM NaHCO3, 35 mM Na2CO3) pH 9.2. Some wells were not coated with CS1 in order to assess non-specific cell binding (NSB). The plate was then incubated overnight at 4° C.
Following this incubation, the contents of the wells were removed by inverting and blotting the plate. All of the wells were then blocked with 100 μL of 1% BSA in PBS, 0.02% NaN3, for a minimum of one hour at room temperature.
3. Preparation of Fluorescently Labelled Ramos Cells Ramos cells are grown, maintained and labelled in RPMI 1640 culture medium containing 1% BSA. Just prior to running the assay, we added 2′,7′-bis-(2-carboxyethyl)5 (and -6) carboxyfluorescein acetoxymethyl ester (“BCECF-AM”; Molecular Probes Inc., Eugene, Oreg.; catalog #B-1150) to a final concentration of 2 μM to a culture of Ramos cells (4×10^6 cells/mL). We incubated the cells for 20 minutes at 37° C.
Following labelling, the cells were washed twice in assay buffer (24 mM TRIS, 137 mM NaCl, 2.7 mM KCl, pH 7.4, containing 0.1% BSA and 2 mM glucose) to remove any cations originating from the culture medium. The cells were then resuspended in assay buffer to 4×10^6 cells/mL and 2 mM MnCl2 was added to upregulate VLA4 on the surface of the cells.
Immediately prior to running the assay, we removed the BSA blocking solution from the 96-well plates and washed the wells with 100 μL of assay buffer. We then added to each well 25 μL of test cell adhesion inhibitory compound at 2× the final concentration and 25 μL of the labelled Ramos cells. Final concentrations were selected across a range of anticipated IC50s, usually between 0.01 nM–10 μM. […]

T1 sequence (P13612 34-1032): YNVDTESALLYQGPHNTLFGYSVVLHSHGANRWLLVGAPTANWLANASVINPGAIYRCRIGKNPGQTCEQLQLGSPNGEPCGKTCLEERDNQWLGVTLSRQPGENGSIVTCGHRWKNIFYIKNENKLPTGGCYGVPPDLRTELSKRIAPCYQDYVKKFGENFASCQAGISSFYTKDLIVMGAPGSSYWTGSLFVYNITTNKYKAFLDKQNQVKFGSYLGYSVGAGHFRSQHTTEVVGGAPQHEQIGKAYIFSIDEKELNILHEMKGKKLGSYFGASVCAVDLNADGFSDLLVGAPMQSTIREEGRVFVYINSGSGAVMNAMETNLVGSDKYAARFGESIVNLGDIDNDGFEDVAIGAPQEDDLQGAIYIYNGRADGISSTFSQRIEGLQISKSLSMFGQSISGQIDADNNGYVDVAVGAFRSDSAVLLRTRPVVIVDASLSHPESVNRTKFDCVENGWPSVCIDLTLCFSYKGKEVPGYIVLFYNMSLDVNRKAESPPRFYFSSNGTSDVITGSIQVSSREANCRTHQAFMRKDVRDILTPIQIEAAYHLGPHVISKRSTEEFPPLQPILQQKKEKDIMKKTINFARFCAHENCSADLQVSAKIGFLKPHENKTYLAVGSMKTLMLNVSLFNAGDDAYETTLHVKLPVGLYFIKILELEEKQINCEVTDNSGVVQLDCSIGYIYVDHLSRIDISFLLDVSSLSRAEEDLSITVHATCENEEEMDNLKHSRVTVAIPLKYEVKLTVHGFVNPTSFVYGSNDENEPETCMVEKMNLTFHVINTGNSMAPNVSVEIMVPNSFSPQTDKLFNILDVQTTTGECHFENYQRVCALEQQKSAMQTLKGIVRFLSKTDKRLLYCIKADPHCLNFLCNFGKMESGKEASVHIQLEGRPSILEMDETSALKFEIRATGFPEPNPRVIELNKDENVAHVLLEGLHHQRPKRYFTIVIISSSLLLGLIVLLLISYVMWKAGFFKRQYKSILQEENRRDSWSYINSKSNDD
T1 sequence (P05556 21-798): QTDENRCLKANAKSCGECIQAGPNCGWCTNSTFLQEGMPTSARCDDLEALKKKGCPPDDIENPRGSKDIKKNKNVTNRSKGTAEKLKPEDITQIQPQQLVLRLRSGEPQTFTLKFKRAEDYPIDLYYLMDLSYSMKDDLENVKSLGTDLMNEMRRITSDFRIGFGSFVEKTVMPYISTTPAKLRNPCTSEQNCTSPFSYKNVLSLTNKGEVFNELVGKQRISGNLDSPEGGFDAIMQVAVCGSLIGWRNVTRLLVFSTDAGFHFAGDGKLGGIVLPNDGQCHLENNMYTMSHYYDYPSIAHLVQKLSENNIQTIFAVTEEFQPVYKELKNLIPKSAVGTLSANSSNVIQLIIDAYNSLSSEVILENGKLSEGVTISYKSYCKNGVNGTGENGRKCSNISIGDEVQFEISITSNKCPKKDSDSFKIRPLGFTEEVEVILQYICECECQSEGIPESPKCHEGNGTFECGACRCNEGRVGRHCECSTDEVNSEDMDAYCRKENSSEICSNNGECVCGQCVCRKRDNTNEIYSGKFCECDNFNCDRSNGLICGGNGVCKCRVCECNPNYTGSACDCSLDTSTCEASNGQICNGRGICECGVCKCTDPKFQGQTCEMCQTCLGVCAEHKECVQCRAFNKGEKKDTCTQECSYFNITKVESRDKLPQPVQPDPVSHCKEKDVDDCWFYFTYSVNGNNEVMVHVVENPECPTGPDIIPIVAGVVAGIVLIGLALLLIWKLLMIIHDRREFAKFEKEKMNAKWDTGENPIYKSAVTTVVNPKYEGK

SMILES	IC50
CC(C)CC(NC(=O)Cc1ccccn1)C(=O)NC(CC(=O)O)c1ccccc1 (stereo not shown) [compound 1004]	> 10 µM
CC(C)CC(NC(=O)Cc1cccnc1)C(=O)NC(CC(=O)O)c1ccccc1 (stereo not shown) [compound 1005]	> 10 µM
CC(C)CC(NC(=O)Cc1ccc(O)cc1)C(=O)NC(CC(=O)O)c1ccc2c(c1)OCO2 (stereo not shown) [compound 1006]	0.05 to 10 µM
CC(C)CC(NC(=O)Cc1ccncc1)C(=O)NC(CC(=O)O)c1ccccc1 (stereo not shown) [compound 1007]	> 10 µM
CC(C)CC(NC(=O)c1ccccc1)C(=O)NC(CC(=O)O)c1ccccc1 (stereo not shown) [compound 1008]	> 10 µM
CC(C)CC(NC(=O)Cc1ccc(C(F)(F)F)cc1)C(=O)NC(CC(=O)O)c1ccccc1 (stereo not shown) [compound 1011]	> 10 µM
CC(C)CC(NC(=O)c1c[nH]c2ccccc12)C(=O)NC(CC(=O)O)c1ccccc1 (stereo not shown) [compound 1014]	> 10 µM
CC(C)CC(NC(=O)C1(c2ccccc2)CC1)C(=O)NC(CC(=O)O)c1ccccc1 (stereo not shown) [compound 1017]	> 10 µM
CC(C)CC(NC(=O)Cc1ccccc1)C(=O)NC(CC(=O)O)c1ccc2c(c1)CCC2 (stereo not shown) [compound 1036]	0.05 to 10 µM
O=C(O)CC(NC(=O)C(Cc1nccs1)NC(=O)Cc1ccc(NC(=O)Nc2ccccc2)cc1)c1ccccc1 (stereo not shown) [compound 1037]	0.05 to 10 µM
CCCC(NC(=O)Cc1ccccc1)C(=O)NC(CC(=O)O)c1ccccc1 (stereo not shown) [compound 1038]	> 10 µM
CCCCC(NC(=O)Cc1ccccc1)C(=O)NC(CC(=O)O)c1ccccc1 (stereo not shown) [compound 1039]	0.05 to 10 µM
CCC(C)C(NC(=O)Cc1ccccc1)C(=O)NC(CC(=O)O)c1ccccc1 (stereo not shown) [compound 1040]	0.05 to 10 µM
CC(C)CC(NC(=O)Cc1ccc(NC(=O)Nc2ccccc2)cc1)C(=O)NC(CC(=O)O)c1ccc2c(c1)OCO2 (stereo not shown) [compound 1050]	< 0.05 µM
CC(C)CC(C(=O)NC(CC(=O)O)c1ccc2c(c1)OCO2)N(C)C(=O)Cc1ccc(NC(=O)Nc2ccccc2)cc1 (stereo not shown) [compound 1055]	< 0.05 µM
COc1cc(CC(=O)NC(CC(C)C)C(=O)NC(CC(=O)O)c2ccc3c(c2)OCO3)ccc1NC(=O)Nc1ccccc1 (stereo not shown) [compound 1056]	< 0.05 µM
CNC(=O)Nc1ccc(CC(=O)NC(CC(C)C)C(=O)NC(CC(=O)O)c2ccc3c(c2)OCO3)cc1 (stereo not shown) [compound 1064]	0.05 to 10 µM
CC(C)CC(NC(=O)Cc1ccc(NC(=O)NC(C)C)cc1)C(=O)NC(CC(=O)O)c1ccc2c(c1)OCO2 (stereo not shown) [compound 1065]	0.05 to 10 µM
CC(C)CC(NC(=O)Cc1ccc(NC(=O)NC2CCCCC2)cc1)C(=O)NC(CC(=O)O)c1ccc2c(c1)OCO2 (stereo not shown) [compound 1068]	0.05 to 10 µM
COc1ccccc1C(CC(=O)O)NC(=O)C(CC(C)C)NC(=O)Cc1ccc(O)cc1 (stereo not shown) [compound 1070]	0.05 to 10 µM
CC(C)CC(NC(=O)Cc1ccc(NS(=O)(=O)c2ccccc2)cc1)C(=O)NC(CC(=O)O)c1ccc2c(c1)OCO2 (stereo not shown) [compound 1074]	0.05 to 10 µM
CC(C)CC(NC(=O)Cc1ccc(NC(=O)c2ccccc2)cc1)C(=O)NC(CC(=O)O)c1ccc2c(c1)OCO2 (stereo not shown) [compound 1075]	0.05 to 10 µM
CCNC(=O)Nc1ccc(CC(=O)NC(CC(C)C)C(=O)NC(CC(=O)O)c2ccc3c(c2)OCO3)cc1 (stereo not shown) [compound 1077]	0.05 to 10 µM
COc1cccc(NC(=O)Nc2ccc(CC(=O)NC(CC(C)C)C(=O)NC(CC(=O)O)c3ccc4c(c3)OCO4)cc2)c1 (stereo not shown) [compound 1078]	0.05 to 10 µM
COc1ccccc1NC(=O)Nc1ccc(CC(=O)NC(CC(C)C)C(=O)NC(CC(=O)O)c2ccc3c(c2)OCO3)cc1 (stereo not shown) [compound 1079]	< 0.05 µM
CC(C)CC(NC(=O)Cc1ccc(NC(=O)Nc2cccnc2)cc1)C(=O)NC(CC(=O)O)c1ccc2c(c1)OCO2 (stereo not shown) [compound 1080]	0.05 to 10 µM

More lines, now with the values ahead:

IC50	SMILES
> 10 µM	CC(C)CC(NC(=O)Cc1ccc(-c2ccccc2)cc1)C(=O)NC(CC(=O)O)c1ccccc1 (stereo not shown) [compound 1009]
0.05 to 10 µM	CC(C)CC(NC(=O)Cc1ccc(Cl)cc1)C(=O)NC(CC(=O)O)c1ccccc1 (stereo not shown) [compound 1010]
0.05 to 10 µM	CC(C)CC(NC(=O)Cc1ccc(NC(=O)c2ccccc2)cc1)C(=O)NC(CC(=O)O)c1ccccc1 (stereo not shown) [compound 1015]
> 10 µM	CC(C)CC(NC(=O)Cc1ccc(N)cc1)C(=O)NC(CC(=O)O)c1ccccc1 (stereo not shown) [compound 1016]
> 10 µM	CC(=O)Nc1cccc(CC(=O)NC(CC(C)C)C(=O)NC(CC(=O)O)c2ccccc2)c1 (stereo not shown) [compound 1018]
> 10 µM	CC(C)CC(NC(=O)Cc1cccc(NC(=O)c2ccccc2)c1)C(=O)NC(CC(=O)O)c1ccccc1 (stereo not shown) [compound 1020]
0.05 to 10 µM	CC(C)CC(NC(=O)Cc1cccc2ccccc12)C(=O)NC(CC(=O)O)c1ccccc1 (stereo not shown) [compound 1021]
> 10 µM	CC(C)CC(NC(=O)Cc1ccc2ccccc2c1)C(=O)NC(CC(=O)O)c1ccccc1 (stereo not shown) [compound 1022]
0.05 to 10 µM	CC(C)CC(NC(=O)Cc1ccc(NC(=O)Cc2ccccc2)cc1)C(=O)NC(CC(=O)O)c1ccccc1 (stereo not shown) [compound 1023]
> 10 µM	CC(C)CC(NC(=O)Cc1ccccc1N)C(=O)NC(CC(=O)O)c1ccccc1 (stereo not shown) [compound 1024]
> 10 µM	CC(C)CC(NC(=O)Cc1ccccc1NC(=O)c1ccccc1)C(=O)NC(CC(=O)O)c1ccccc1 (stereo not shown) [compound 1026]
> 10 µM	CC(C)CC(NC(=O)Cc1ccccc1NC(=O)OCc1ccccc1)C(=O)NC(CC(=O)O)c1ccccc1 (stereo not shown) [compound 1027]
0.05 to 10 µM	CC(C)CC(NC(=O)Cc1ccc(NC(=O)c2ccccc2N)cc1)C(=O)NC(CC(=O)O)c1ccccc1 (stereo not shown) [compound 1028]
> 10 µM	CNC(=O)Nc1ccccc1C(=O)Nc1ccc(CC(=O)NC(CC(C)C)C(=O)NC(CC(=O)O)c2ccccc2)cc1 (stereo not shown) [compound 1029]
> 10 µM	CC(C)CC(NC(=O)Cc1cccc(N)c1)C(=O)NC(CC(=O)O)c1ccccc1 (stereo not shown) [compound 1030]
> 10 µM	CC(C)CC(NC(=O)Cc1cccc(NC(=O)OCc2ccccc2)c1)C(=O)NC(CC(=O)O)c1ccccc1 (stereo not shown) [compound 1031]
> 10 µM	CC(C)CC(NC(=O)Cc1cccc(NS(=O)(=O)c2ccccc2)c1)C(=O)NC(CC(=O)O)c1ccccc1 (stereo not shown) [compound 1032]
> 10 µM	O=C(O)CC(NC(=O)C(Cc1ccccc1)NC(=O)Cc1ccccc1)c1ccccc1 (stereo not shown) [compound 1046]
0.05 to 10 µM	CC(C)CC(NC(=O)CCc1ccc(NC(=O)Nc2ccccc2)cc1)C(=O)NC(CC(=O)O)c1ccccc1 (stereo not shown) [compound 1052]
0.05 to 10 µM	CC(C)CC(C(=O)NC(CC(=O)O)c1ccccc1)N(C)C(=O)Cc1ccc(NC(=O)Nc2ccccc2)cc1 (stereo not shown) [compound 1053]
0.05 to 10 µM	CC(C)CC(NC(=O)Cc1cccc(NC(=O)Nc2ccccc2)c1)C(=O)NC(CC(=O)O)c1ccccc1 (stereo not shown) [compound 1054]
0.05 to 10 µM	CC(C)CC(NC(=O)Cc1ccc(NC(=O)Nc2ccccc2)cc1)C(=O)NC(CC(=O)O)c1ccccc1 (stereo not shown) [compound 1060]
0.05 to 10 µM	CC(C)CC(NC(=O)Cc1ccc(NC(=O)Nc2ccccc2)cc1)C(=O)NC(CC(=O)O)Cc1ccccc1 (stereo not shown) [compound 1063]
< 0.05 µM	COc1ccccc1C(CC(=O)O)NC(=O)C(CC(C)C)NC(=O)Cc1ccc(NC(=O)Nc2ccccc2)cc1 (stereo not shown) [compound 1069]
< 0.05 µM	COc1cccc(C(CC(=O)O)NC(=O)C(CC(C)C)NC(=O)Cc2ccc(NC(=O)Nc3ccccc3)cc2)c1 (stereo not shown) [compound 1072]
0.05 to 10 µM	CC(C)CC(NC(=O)Cc1ccc(NC(=O)OCc2ccccc2)cc1)C(=O)NC(CC(=O)O)c1ccc2c(c1)OCO2 (stereo not shown) [compound 1073]
